Measurements as given in PubChem BioAssay AID977625 (Broad Institute, 2014).
Results filed as inconclusive are left out. Active and inactive are the calls of the source.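 The calls were made as follows: active = red signal from normal-ribosome E. coli cut at least twice as much as green humanized-ribosome signal, growth cut under 30%; inconclusive = no clear call, values can overlap the other calls; inactive = the rest.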

Columns and labels:
[1] = system: E. coli h34-humanized GFP strain growth, fluorescence, 24 h; assay: growth inhibition of h34-humanized E. coli versus wild-type, dose response, h34 mutant GFP vs wild-type RFP, cherry-pick, OD600 (AID 977625)
[2] = system: E. coli mixed culture (wild-type RFP + h34-humanized GFP), total OD600 growth, 24 h; assay: as above; conditions: E. coli h34-humanized GFP strain growth, fluorescence, 24 h; measured here: total culture OD600 growth
[3] = as above; conditions: E. coli h34-humanized GFP strain growth, fluorescence, 24 h; at 50 µM (top of the series)

For `COc1ccc(-n2cc(-c3ccccc3)c3c(N4CCOCC4)ncnc32)cc1`, the AC50 [1] was > 100 µM (inactive) and the AC50 [2] was 42.2 µM.

For `Cc1ccc(S(=O)(=O)N2CC[C@H]3[C@H](CO)Nc4ccc(Br)cc4[C@H]32)cc1`, the activity change, negative = inhibition [3] was 7.09 (inactive).

With `CCn1c(-c2cc(-c3ccc(OC(C)C)cc3)nc3ccccc23)n[nH]c1=S` the AC50 [1] was > 100 µM (inactive).

For `COc1cccc(C(=O)Nc2cc(C)nn2-c2ccccc2)c1OC`, the activity change, negative = inhibition [3] was 18.9 (inactive) and the AC50 [2] was greater than 100 µM.

In the case of `COc1ccc(Cn2c(-c3ccc(Cl)cc3)c[n+]3ccccc23)cc1`, the activity change, negative = inhibition [3] was 30.2 (inactive).

In the case of `COc1ccc2[nH]c3c(=O)n(CCCCC(=O)NCCC(C)C)c(=S)[nH]c3c2c1`, the activity change, negative = inhibition [3] was -5.72 (inactive).

In the case of `CCN(CC)CCn1c2ccccc2c2nc3ccc([N+](=O)[O-])cc3cc21`, the AC50 [1] was 1.39 µM (inactive) and the AC50 [2] was 4.35 µM.

With `C[C@@H]1CCCCO[C@H](CN(C)C(=O)CCCN(C)C)[C@H](C)CN([C@@H](C)CO)C(=O)c2cc(NC(=O)Nc3cccc4ccccc34)ccc2O1` the activity change, negative = inhibition [3] was 21.7 (inactive) and the AC50 [2] was greater than 100 µM.

In the case of `COc1cc2c(cc1[N+](=O)[O-])-c1ccc([N+](=O)[O-])cc1C2`, the activity change, negative = inhibition [3] was -48.1 (inactive) and the AC50 [2] was 0.378 µM.

`CC1(Cc2ccccc2C#N)C(=O)Nc2cc(-c3ccccc3Cl)ccc21` (stereo unspecified) gave an AC50 [2] of 24.8 µM.

Work on `O=C(O)c1cc([N+](=O)[O-])ccc1NCc1ccccc1` yielded an AC50 [2] of 20.1 µM.

With `Cc1noc(C)c1NC(=O)Nc1ccc2c(c1)C(=O)N([C@H](C)CO)C[C@@H](C)[C@@H](CN(C)C(=O)Nc1ccc3c(c1)OCO3)OCCCC[C@@H](C)O2` the activity change, negative = inhibition [3] was 0.093 (inactive).

With `CCOC(=O)c1c(NC(=O)Cc2cccs2)sc(C)c1C` the activity change, negative = inhibition [3] was 12.4 (inactive) and the AC50 [2] was greater than 100 µM.

For `Cc1ccc(C)c(NC(=O)CSc2nc3nc(-c4cccs4)cc(C(F)(F)F)c3c(=O)[nH]2)c1`, the activity change, negative = inhibition [3] was -48.2 (inactive) and the AC50 [2] was 36.2 µM.
